Assay results reported in patent US11628160B2, “Compositions and methods for treating brain injury” (Azevan Pharmaceuticals, Inc., priority 2017, dated 2023).

Columns and labels:
[1] = molecular target: T1, human V1a receptor (Homo sapiens, UniProt P37288); assay: Human vasopressin V1a receptor binding assay; conditions: selectivity table; read-out: inhibition data Ki, V1a
T1 construct: host or cells: CHO cells
How it was run: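 Whole CHO cells expressing human V1a incubated with 1 nM 3H-AVP and 10-fold compound dilutions in 25 mM Hepes, 0.25% BSA, DMEM pH 7.0 for 45 min at 37 °C. Nonspecific binding with 100 nM unlabelled AVP. Cells SDS-lysed, scintillation counted; IC50 by curve fitting.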

[2] = test system: Male Sprague Dawley rats; assay: Resting state functional connectivity (fMRI); type: in vivo, rat; conditions: Treatment group
Text: EXAMPLE. Resting state functional connectivity. Resting-state fMRI scan is collected using spin-echo triple-shot EPI sequence (imaging parameters: matrix size=96×96×20, TR/TE=3000/15 msec, voxel size=[…], slice thickness=1 mm. Preprocessing is illustratively accomplished by combining Analysis of Functional NeuroImages (AFNI_17.1.12, http://afni.nimh.nih.gov/afni/), FMRIB Software library (FSL, v5.0.9, http://fsl.fmrib.ox.ac.uk/fsl/), Deformable Registration via Attribute Matching and Mutual-Saliency Weighting (DRAMMS 1.4.1, https://www.cbica.upenn.edu/sbia/software/dramms/index.html) and MATLAB (Mathworks, Natick, Mass.). Brain tissue masks for resting-state functional images are manually drawn using 3DSlicer (https://www.slicer.org/) and applied for skull-stripping. Normalization is completed by registering functional data to the MRI Rat Brain Template (Ekam Solutions LLC, Boston, Mass.) using affine registration through DRAMMS. The region-to-region functional connectivity method is illustratively performed to measure the correlations in spontaneous BOLD fluctuations. A network is comprised of nodes and edges; nodes being the brain region of interest (ROI) and edges being the connections between regions. Nodes are defined using the ROIs segmented from an appropriate MRI RAT Brain Atlas. Illustratively, 171 nodes are defined. Voxel time series data are averaged in each node based on the residual images using the nuisance regression procedure. Pearson's correlation coefficients across all pairs of nodes (14535 pairs for 171 nodes) are computed for each subject among all three groups to assess the interregional temporal correlations. The r-values (ranging from −1 to 1) are z-transformed using the Fisher's Z transform to improve normality. For 171 nodes, 171×171 symmetric connectivity matrices are constructed with each entry representing the strength of edge. Group-level analysis is performed to look at the functional connectivity in controls, one hit and three hit groups. The resulting Z-score matrices from one-group t-tests are clustered using the K-nearest neighbors clustering method to identify how nodes cluster together and form resting state networks. A Z-score threshold of |Z|=2.3 is applied to remove spurious or weak node connections for visualization purposes.
Beginning on postnatal (P)70, animals are divided into 3 groups (n=6-7/group; Sham Control Group (Control, CG), Injury Group (IG), and Treatment Group (TG) and begin their head impact, and drug regimens. All groups are anaesthetized with 4% isoflurane in oxygen, and Injury group and Treatment group receive the first of two total head impacts) using a custom setup from Animal Imaging Research (AIR; Holden, Mass.) on P70. […]

[3] = test system: Male Sprague Dawley rats; assay: Novel Object Recognition test (momentum exchange impact model); type: in vivo, rat
Procedure: (§1) EXAMPLE. Momentum exchange impact model. This model features several advantageous translational differences over some head injury models, such as the controlled cortical impact injury model. For example, the head, neck and body can move with impact, and the velocity of head movement and energy transfer can be calculated and scaled mild to provide range from moderate to severe concussions. Studies are conducted with moderate impacts with neuroradiological evidence of contusions. Male rats are concussed twice with one day. Additional details are described in Viano et al., “Evaluation of three animal models for concussion and serious brain injury” Ann Biomed Eng. 40(1):213-26 (2012). […] Sham non-concussed test animals are given vehicle or test compound. Test animals are treated twice daily for 5 consecutive days. At two weeks post concussion cognitive behaviors are assessed, using for example, the Barnes maze and/or novel recognition models. In addition, motor behaviors are assessed, using for example, beam walk and/or rotarod tests. In each case, neuroradiological MRI is also performed.
(§2) Beginning on postnatal (P)70, animals are divided into 3 groups (n=6-7/group; Sham Control Group (Control, CG), Injury Group (IG), and Treatment Group (TG) and begin their head impact, and drug regimens. All groups are anaesthetized with 4% isoflurane in oxygen, and Injury group and Treatment group receive the first of two total head impacts) using a custom setup from Animal Imaging Research (AIR; Holden, Mass.) on P70. The day after the first impact (P71), test compound, such as AVN576, is administered to the Treatment group and the Sham Control group. In addition, a vehicle only control group (VCG) is administered saline. All administrations re administered to the Control and Treatment groups twice per day at 0700 and 1400 (IP @10 mg/kg). The drug regimen is continued over the following 4 days (5 days total). The second head impact is delivered two days following the first on P72. Two weeks post impact, animals are imaged and tested for cognitive and motor behaviors. In all evaluations made, there was not a significant difference between the sham control group (CG) receiving test compounds and vehicle-only sham control group (VCG) receiving vehicle.
EXAMPLE. Novel Object Recognition test results. This test assesses episodic learning and memory-related stimulus recognition.

[4] = test system: Male Sprague Dawley rats; assay: Barnes Maze test (momentum exchange impact model); type: in vivo, rat
Procedure: as §1, §2
EXAMPLE. Barnes Maze test results. This test assesses spatial learning and memory.

T1 sequence (P37288 whole entry): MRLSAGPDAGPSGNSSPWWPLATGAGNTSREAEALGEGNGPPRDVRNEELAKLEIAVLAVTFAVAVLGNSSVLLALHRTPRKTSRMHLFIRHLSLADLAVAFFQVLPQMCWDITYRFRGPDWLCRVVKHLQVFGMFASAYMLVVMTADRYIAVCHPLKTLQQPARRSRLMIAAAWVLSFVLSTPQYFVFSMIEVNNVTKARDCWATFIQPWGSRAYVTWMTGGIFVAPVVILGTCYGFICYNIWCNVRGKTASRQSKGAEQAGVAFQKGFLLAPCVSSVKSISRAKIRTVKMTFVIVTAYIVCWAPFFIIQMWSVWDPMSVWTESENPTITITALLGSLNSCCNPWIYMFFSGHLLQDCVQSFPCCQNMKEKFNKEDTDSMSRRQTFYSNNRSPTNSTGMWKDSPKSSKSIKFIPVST

C[C@@H](NC(=O)[C@@H](CC(=O)N1CCC(N2CCCCC2)CC1)N1C(=O)[C@@H](N2C(=O)OC[C@@H]2c2ccccc2)[C@H]1/C=C/c1cccc(I)c1)c1ccccc1 [Example 266]
Ki [1]: 1.1 nM | connectivity of hippocampus, Area M [2]: hyperconnectivity compared to Injury group and Control group | connectivity of ventral hippocampus, Area G [2]: hyperconnectivity compared to Injury group and Control group | functional connectivity in network circuitry associated with learning, cognition, memory, and attention ([2]; even compared to Control group): enhanced functional connectivity | resting state functional connectivity network ([2]; 166 brain areas): hyperconnectivity | percentage of time with the novel object compared to the Injury group ([3]; Treatment group P=0.003): significantly longer percentage of time | total time with the novel object compared to the Injury group ([3]; Treatment group P=0.02): significantly more total time | exploration index (exploration instances) compared to the Injury group ([3]; Treatment group P=0.06): only a trend towards significance | time investigating the novel object (recognition index) compared to chance ([3]; Treatment group, t(5)=2.61, p<0.05, IP 10 mg/kg twice daily 5 days): significantly greater than a chance amount of time | distance traveled before finding the goal box: Injury group relative to Treatment group ([4]; P=0.03): significantly greater distance | error duration (time exploring wrong holes): Injury group relative to Treatment group ([4]; P=0.03): significantly more time exploring the wrong holes | deficits in learning and memory, Barnes maze ([4]; Treatment group, did not differ from control group): did not show any deficits in learning and memory | latency to find the goal box: Injury group relative to Treatment group ([4]; collapsed across acquisition days, P=0.04): longer latencies to find the goal box
